The target in one series is T1, Cyclin E/CDK2 (Homo sapiens, UniProt P24941).
T1 construct: The expressed protein was approximately 34 kDa in size; made in house; host or cells: SF9 insect cells (baculovirus co-infection)
Put plainly: Cyclin E/CDK2 in vitro kinase assay (SPA, 33P-ATP, biotinylated Histone H1 peptide). The class given is biochemical. As to conditions: recombinant cyclin E/CDK2 from SF9 cells; 8 point serial dilutions in duplicate; 1 hour at room temperature.

Molecules are shown by their SMILES. “And” between values parts separate entries of the source, which are not always exact repeats. Equal entries are not always repeated. A value given as a limit tells only on which side of the number the result lay.

The molecule `CS(=O)(=O)c1ccc(Nc2cc(-c3ccccc3)nc3c(C4CC4)cnn23)cc1` yielded a melting point of 210 to 211 °C.

`CC(C)c1cnn2c(Nc3ccc(S(C)(=O)=O)cc3)cc(-c3ccccc3)nc12` returned a melting point of 213 to 216 °C.

In turn, `CS(=O)(=O)c1ccc(Nc2cc(-c3ccc(Cl)cc3)nc3c(Br)cnn23)cc1` gave a melting point of 249 to 253 °C.

`CCc1cnn2c(Nc3ccc(S(C)(=O)=O)cc3)cc(-c3ccccc3)nc12` yielded a melting point of 192 to 194 °C.

In turn, `CS(=O)(=O)c1ccc(Nc2cc(-c3ccccc3)nc3c(Br)cnn23)cc1` returned a melting point of 202 to 204 °C.

`O=S(=O)(O)c1cccc(Nc2cc(-c3ccccc3)nc3c(Br)cnn23)c1`: the melting point fell in the range of 206 to 208 °C.

Molecule `O=S(=O)(O)c1ccc(Nc2cc(-c3ccccc3F)nc3c(Br)cnn23)cc1` gave a melting point of more than 250 °C.

In the case of `CCc1cnn2c(Nc3ccc(S(=O)(=O)O)cc3)cc(-c3ccccc3)nc12`, the melting point was more than 250 °C.

`CN(C)S(=O)(=O)c1ccc(Nc2cc(-c3ccccc3)nc3c(Br)cnn23)cc1` returned a melting point of 237 to 239 °C.

`CC(C)(C)OC(=O)NCCNS(=O)(=O)c1ccc(Nc2cc(-c3ccccc3)nc3c(Br)cnn23)cc1` registered a melting point of 195 to 197 °C.

Turning to `O=S(=O)(NCc1ccccc1)c1ccc(Nc2cc(-c3ccccc3)nc3c(Br)cnn23)cc1`, the melting point lay in the range of 216 to 218 °C.

For `O=S(=O)(NCCCO)c1ccc(Nc2cc(-c3ccccc3)nc3c(Br)cnn23)cc1`, the melting point lay within 165 to 168 °C.

As for `O=S(=O)(Nc1ccccc1)c1ccc(Nc2cc(-c3ccccc3)nc3c(Br)cnn23)cc1`, the melting point lay within 147 to 150 °C.

As for `CC(C)(C)OC(=O)N1CCC(NS(=O)(=O)c2ccc(Nc3cc(-c4ccccc4)nc4c(Br)cnn34)cc2)CC1`, the melting point was 127 to 129 °C.

As to `CS(=O)(=O)c1ccc(Nc2cc(-c3ccccc3F)nc3c(Cl)cnn23)cc1`, the melting point lay in the range of 232 to 235 °C.

In the case of `O=S(=O)(NC1CCCC1)c1ccc(Nc2cc(-c3ccccc3)nc3c(Br)cnn23)cc1`, the melting point was > 200 °C (dec.).

Turning to `CC(CO)NS(=O)(=O)c1ccc(Nc2cc(-c3ccccc3)nc3c(Br)cnn23)cc1` (stereo not shown), the melting point is > 200 °C (dec.).

`O=S(=O)(NCc1ccccn1)c1ccc(Nc2cc(-c3ccccc3)nc3c(Br)cnn23)cc1` had a melting point of 101 to 103 °C.

`O=S(=O)(NCc1cccnc1)c1ccc(Nc2cc(-c3ccccc3)nc3c(Br)cnn23)cc1` displayed a melting point of 110 to 114 °C.

`O=S(=O)(O)CCNS(=O)(=O)c1ccc(Nc2cc(-c3ccccc3)nc3c(Br)cnn23)cc1` displayed a melting point of 206 to 208 °C.

As for `CS(=O)(=O)c1ccc(Nc2cc(-c3ccccc3F)nc3c(Br)cnn23)cc1`, the melting point was in the range of 117 to 118 °C.

For `CC(CO)(CO)NS(=O)(=O)c1ccc(Nc2cc(-c3ccccc3)nc3c(Br)cnn23)cc1`, the melting point was 98 to 100 °C.

In turn, `COC(=O)CNS(=O)(=O)c1ccc(Nc2cc(-c3ccccc3)nc3c(Br)cnn23)cc1` returned a melting point of 182 to 184 °C.

In the case of `CN1CCN(S(=O)(=O)c2ccc(Nc3cc(-c4ccccc4)nc4c(Br)cnn34)cc2)CC1`, the melting point fell in the range of 228 to 230 °C.

As to `O=S(=O)(N[C@@H](CO)Cc1ccccc1)c1ccc(Nc2cc(-c3ccccc3)nc3c(Br)cnn23)cc1`, the melting point lay within 108 to 110 °C.

With `O=S(=O)(N[C@H](CO)Cc1ccccc1)c1ccc(Nc2cc(-c3ccccc3)nc3c(Br)cnn23)cc1`, the melting point lay within 102 to 105 °C.

For the molecule `CS(=O)(=O)c1ccc(Nc2cc(-c3cccc(C(F)(F)F)c3)nc3c(Br)cnn23)cc1`, the melting point lay within 210 to 212 °C.

Regarding `O=S(=O)(NCCO)c1cccc(Nc2cc(-c3ccccc3)nc3c(Br)cnn23)c1`, the melting point lay within 87 to 90 °C.

Turning to `CC(O)CNS(=O)(=O)c1cccc(Nc2cc(-c3ccccc3)nc3c(Br)cnn23)c1` (stereo not shown), the melting point lay within 115 to 120 °C.

`CCc1cnn2c(Nc3ccc(S(=O)(=O)NCCN(C)C)cc3)cc(-c3ccccc3)nc12` gave a melting point of 99 to 101 °C.

On to `CC(C)c1cc(Nc2ccc(S(C)(=O)=O)cc2)n2ncc(Br)c2n1`, for which the melting point was in the range of 214 to 215 °C.

`CC(C)c1cc(Nc2ccccc2)n2ncc(Br)c2n1` returned a melting point of 166 to 168 °C.

`CC(C)(C)c1cc(Nc2ccccc2)n2ncc(Br)c2n1`: the melting point came out at 144 °C.

For `CS(=O)(=O)c1ccc(Nc2cc(-c3ccccc3Cl)nc3c(Br)cnn23)cc1` [Example 1], the IC50 at Cyclin E/CDK2 was 400 nM and 1400 nM.

As for `Clc1ccccc1-c1cc(Nc2ccccc2)n2ncc(Br)c2n1` [Example 2], the IC50 at Cyclin E/CDK2 is 510 nM.

In the case of `Fc1ccccc1-c1cc(Nc2ccccc2)n2ncc(Cl)c2n1` [Example 3], the melting point is 112 to 116 °C. Also, the IC50 on Cyclin E/CDK2 turned out to be 42 nM.

`O=S(=O)(O)c1ccc(Nc2cc(-c3ccccc3)nc3c(Br)cnn23)cc1` [Example 22] gave a melting point of more than 250 °C. On Cyclin E/CDK2, the IC50 was 82 nM.

In the case of `CCNS(=O)(=O)c1ccc(Nc2cc(-c3ccccc3)nc3c(Br)cnn23)cc1` [Example 28], the melting point fell in the range of 101 to 104 °C. In addition, the IC50 on Cyclin E/CDK2 is 80 nM.

For `O=S(=O)(NCCO)c1ccc(Nc2cc(-c3ccccc3)nc3c(Br)cnn23)cc1` [Example 30], the melting point lay within 175 to 177 °C. Moreover, on Cyclin E/CDK2, the concentration for half-maximal inhibition (IC50) is 29 nM.

`NS(=O)(=O)c1ccc(Nc2cc(-c3ccccc3)nc3c(Br)cnn23)cc1` [Example 31] came in with a melting point of 206 to 208 °C. For the same molecule, the IC50 on Cyclin E/CDK2 was found to be 45 nM.

Molecule `CNS(=O)(=O)c1ccc(Nc2cc(-c3ccccc3)nc3c(Br)cnn23)cc1` [Example 32] registered a melting point of 231 to 233 °C. Also, at Cyclin E/CDK2, the IC50 came out at 57 nM.

For `O=S(=O)(Nc1ccncc1)c1ccc(Nc2cc(-c3ccccc3)nc3c(Br)cnn23)cc1` [Example 38], the melting point was 192 to 195 °C. For the same molecule, on Cyclin E/CDK2, the IC50 was 40 nM.

With `COCCNS(=O)(=O)c1ccc(Nc2cc(-c3ccccc3)nc3c(Br)cnn23)cc1` [Example 42], the melting point lay in the range of 172 to 173 °C. Also, on Cyclin E/CDK2, the IC50 amounted to 70 nM.

The molecule `CN(C)CCNS(=O)(=O)c1ccc(Nc2cc(-c3ccccc3)nc3c(Br)cnn23)cc1` [Example 43] yielded a melting point of 165 to 167 °C. Besides, on Cyclin E/CDK2, the IC50 came out at 34 nM.

The molecule `O=S(=O)(c1ccc(Nc2cc(-c3ccccc3)nc3c(Br)cnn23)cc1)N(CCO)CCO` [Example 47] registered a melting point of 90 to 92 °C. On Cyclin E/CDK2, the IC50 was 34 nM.

`CN(C)CC(C)(C)CNS(=O)(=O)c1ccc(Nc2cc(-c3ccccc3)nc3c(Br)cnn23)cc1` [Example 48] yielded a melting point of 163 to 165 °C. For the same molecule, the IC50 at Cyclin E/CDK2 is 25 nM.

Molecule `O=S(=O)(NC(CO)CO)c1ccc(Nc2cc(-c3ccccc3)nc3c(Br)cnn23)cc1` [Example 50] displayed a melting point of 122 to 124 °C. Further, the half-maximal inhibitory concentration (IC50) at Cyclin E/CDK2 amounted to 30 nM.

On to `CN(C)CCCNS(=O)(=O)c1ccc(Nc2cc(-c3ccccc3)nc3c(Br)cnn23)cc1` [Example 53], for which the melting point fell in the range of 78 to 80 °C. Besides, the IC50 on Cyclin E/CDK2 is 11 nM.

Source of the values: patent publication US7205308B2, “Trisubstituted 7-aminopyrazolopyrimidines as cyclin dependent kinase inhibitors” (Schering Corporation, priority 2002, dated 2007).
